Values of other authors, collected in patent publication US20090118352A1, “Broad spectrum microbicidal and spermicidal compositions and methods” (ESAWTECH, LTD., priority 2007, published 2009).

How the values were obtained:
HIV [1] = details: phase III trial
[2] = test system: epithelial cells in the vagina
HIV [3] = details: clinical trial in women, stopped 2007

Substance | HIV transmission rate versus placebo (HIV [1]; N-9 group) | efficacy in preventing HIV transmission (HIV [1]; UN Joint Programme on HIV/AIDS, 2002) | effect on epithelial cells in the vagina [2] | HIV infections, active group versus placebo group (HIV [3])
NONOXYL-9 [N-9] | marginally higher | no efficacy | can disrupt epithelial cells in the vagina | –
cellulose sulfate | – | – | – | higher number of HIV infections in the active group compared with the placebo group
